Patent publication US11766434B2, “Pyrimidinone derivatives as CDC7 inhibitors” (Cancer Research Technology Limited, priority 2016, dated 2023)

These molecules were tested against Cdc7/ASK (Homo sapiens, UniProt O00311) (assay: Cdc7 biochemical assay Method 1: 384 well ELISA, MCM2 whole protein substrate, Phospho MCM2 (S53) antibody). Conditions: ATP 2 μM, 90 minutes, read-out: Biochemical method 1 (pIC50) (converted).
Design: purchased
Method: This protocol describes a method for assaying Cdc7/ASK for activity. The assay is a 384 well ELISA assay, utilising a whole protein substrate (MCM2) and an antibody against Phospho MCM2 (S53). This site is thought to be specific to Cdc7/ASK phosphorylation and the assay has been validated using knockout mutants.
• TBS: 25 mM Tris pH 7.2, 150 mM NaCl. (Dilute 10× stock by 1:10). • Wash Buffer: TBS+0.05% Tween 20. (Add 100 mL 1 M Tris pH 7.2, 120 mL 5 M NaCl and 2 mL 100% Tween 20 per 4 L). • Kinase Reaction Buffer: 50 mM Tris-HCl pH 8.5, 10 mM MgCl2, 1 mM DTT. (Dilute 10× stock by 1:10 and add 100 μL 1M DTT per 100 mL prior to assay). • Diethanolamine Buffer: 1 M diethanolamine pH 9.8, 0.5 mM MgCl2. • Stop Solution: 1 M NaOH. • MCM2 was expressed and purified in-house and used in the assay at a final assay concentration of 436 ng/well. • Cdc7/ASK is purchased from commercial suppliers and used in the assay at a final assay concentration of 37.97 ng/well or 20.63 nM. • ATP used as a final assay concentration of 2 μM. • Primary Antibody: Rabbit anti-Phospho MCM2 (S53 Antibody (BL3353)), is purchased from commercial suppliers at 0.2 mg/mL and used at a final assay concentration by diluting 1:800 in TBS. • Secondary Antibody: Anti-Rabbit/AP Antibody is supplied is purchased from commercial suppliers at 1 mg/mL and used at a final assay concentration by diluting 1:2000 in TBS. • Development Reagent: Dissolve one 20 mg PNPP tablet (Sigma, product N2765, 20 mg per tablet) per 20 mL diethanolamine Buffer (or one 5 mg PNPP tablet per 5 mL diethanolamine buffer). Cover in foil and leave shaking on a roller shaker at room temperature for up to an hour to dissolve. Methods • 1. Add 20 μL 1× working stock of Substrate (MCM2) in TBS to all wells of a clear, 384 well, Nickel-chelate microplate to give a final concentration of 250 ng/well. Incubate at room temperature for at least 1 hour. Plates can be pre-coated for 1 hour and stored at 4° C. for up to 8 days. • 2. Wash with TBS+0.05% Tween 20 (80 μL x 3). • 3. Add 2 μL 10× test compounds, including the positive control, in 40% DMSO/water to ‘test’ wells. Add 2 μL 40% DMSO/water to ‘control’ and ‘blank’ wells. The final DMSO concentration will be 4%. • 4. Add 13 μL CDCl7/ASK Kinase (1.5× stock) in Kinase Reaction Buffer to ‘test’ and ‘control’ wells to give a final concentration of […]. Add 13 μL Kinase Reaction Buffer to ‘blank’ wells. • 5. Add 5 μL ATP (4× stock) in Kinase Reaction Buffer to all wells to give a final concentration of 2 μM. • 6. Incubate at room temperature for 90 minutes. • 7. Wash with TBS+0.05% Tween 20 (80 μL x 3). • 8. Add 20 μL 1× working solution of Primary Antibody in TBS to all wells. Incubate at room temperature for 30 minutes. • 9. Wash with TBS+0.05% Tween 20 (80 μL x 3). • 10. Add 20 μL 1× working solution of Secondary Antibody in TBS to all wells. Incubate at room temperature for 30 minutes. • 11. Wash with TBS+0.05% Tween 20 (80 μL x 3). • 12. Add 20 μL 1× Development Reagent to all wells. • 13. Incubate at room temperature for 2 hours. Stop the reaction by adding 20 μL Stop Solution to all wells and record Absorbance on a Pherastar plate reader.
Percentage inhibition values were calculated from absorbance values, using the no compound (DMSO) and no enzyme control values as 0% and 100% inhibition, respectively. IC50 determination was performed with ExcelFit software (IDBS) using curve fit 205. Z′ factors were determined for each plate tested and were all above 0.5.

Chain of Cdc7/ASK (O00311 whole entry): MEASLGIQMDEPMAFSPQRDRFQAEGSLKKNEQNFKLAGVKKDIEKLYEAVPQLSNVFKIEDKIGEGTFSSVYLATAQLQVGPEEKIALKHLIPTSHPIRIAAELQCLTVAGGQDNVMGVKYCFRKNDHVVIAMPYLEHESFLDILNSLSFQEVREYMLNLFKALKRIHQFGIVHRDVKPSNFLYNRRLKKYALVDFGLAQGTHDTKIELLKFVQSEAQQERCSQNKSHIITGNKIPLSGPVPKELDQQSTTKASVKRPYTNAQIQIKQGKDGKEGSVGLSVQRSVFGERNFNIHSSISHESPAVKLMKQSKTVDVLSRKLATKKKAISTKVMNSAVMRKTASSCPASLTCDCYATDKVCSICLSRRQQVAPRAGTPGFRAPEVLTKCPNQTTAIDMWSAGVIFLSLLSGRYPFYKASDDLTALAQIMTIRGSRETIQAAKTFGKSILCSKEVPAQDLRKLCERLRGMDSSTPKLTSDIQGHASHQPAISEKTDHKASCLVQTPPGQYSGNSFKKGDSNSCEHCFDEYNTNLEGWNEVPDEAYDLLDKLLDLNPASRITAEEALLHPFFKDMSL
Chain of Cdc7/ASK (Q9UBU7 whole entry partner): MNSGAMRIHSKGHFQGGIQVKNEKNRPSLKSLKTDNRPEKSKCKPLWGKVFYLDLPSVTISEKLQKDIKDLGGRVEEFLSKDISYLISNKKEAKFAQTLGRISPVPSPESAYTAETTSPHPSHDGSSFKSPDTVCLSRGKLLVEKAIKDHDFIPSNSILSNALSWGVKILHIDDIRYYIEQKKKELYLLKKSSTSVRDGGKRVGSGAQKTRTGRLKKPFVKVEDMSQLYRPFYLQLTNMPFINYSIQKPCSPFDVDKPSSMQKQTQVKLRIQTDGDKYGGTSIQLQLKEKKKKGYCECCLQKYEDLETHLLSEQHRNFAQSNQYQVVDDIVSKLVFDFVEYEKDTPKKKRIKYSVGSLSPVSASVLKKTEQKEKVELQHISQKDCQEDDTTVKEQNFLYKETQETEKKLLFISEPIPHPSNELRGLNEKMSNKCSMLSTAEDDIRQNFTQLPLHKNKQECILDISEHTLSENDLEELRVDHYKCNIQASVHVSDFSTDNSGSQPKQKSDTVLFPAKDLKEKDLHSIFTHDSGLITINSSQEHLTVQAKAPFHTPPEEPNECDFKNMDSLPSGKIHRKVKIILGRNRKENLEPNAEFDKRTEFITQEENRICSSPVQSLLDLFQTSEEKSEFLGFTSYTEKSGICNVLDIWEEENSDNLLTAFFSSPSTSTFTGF

SMILES	IC50
Cc1ncsc1-c1nc(C2CCOCC2)c(I)c(=O)[nH]1 [Compound 7, 5-Iodo-2-(4-methylthiazol-5-yl)-4-tetrahydropyran-4-yl-1H-pyrimidin-6-one]	245 nM
Cc1ncsc1-c1nc(C2CCOCC2)c(Br)c(=O)[nH]1 [Compound 3, 5-bromo-2-(4-methylthiazol-5-yl)-4-tetrahydropyran-4-yl-1H-pyrimidin-6-one]	57.5 nM
Cn1nccc1-c1nc(C2CCOCC2)c(Cl)c(=O)[nH]1 [Compound 10, 5-chloro-2-(2-methylpyrazol-3-yl)-4-tetrahydropyran-4-yl-1H-pyrimidin-6-one]	93.3 nM
Cc1ncsc1-c1nc(C2CCN(C(=O)C3CC3(F)F)CC2)c(Cl)c(=O)[nH]1 (stereo not shown) [Compound 19, 5-chloro-4-[1-(2,2-difluorocyclopropanecarbonyl)-4-piperidyl]-2-(4-methylthiazol-5-yl)-1H-pyrimidin-6-one]	40.7 nM
Cc1nc(O)sc1-c1nc(C2CCOCC2)c(Cl)c(=O)[nH]1 [Compound 5, 5-chloro-2-(2-hydroxy-4-methyl-thiazol-5-yl)-4-tetrahydropyran-4-yl-1H-pyrimidin-6-one]	126 nM
O=c1[nH]c(-c2cncs2)nc(C2CCOCC2)c1Cl [Compound 9, 5-chloro-4-tetrahydropyran-4-yl-2-thiazol-5-yl-1H-pyrimidin-6-one]	562 nM
Cc1nnsc1-c1nc(C2CCOCC2)c(Cl)c(=O)[nH]1 [Compound 11, 5-chloro-2-(4-methylthiadiazol-5-yl)-4-tetrahydropyran-4-yl-1H-pyrimidin-6-one]	692 nM
Cc1ncsc1-c1nc(C2CCN(C(=O)OC(C)(C)C)CC2)c(Cl)c(=O)[nH]1 [Compound 1, tert-butyl 4-[5-chloro-2-(4-methylthiazol-5-yl)-6-oxo-1H-pyrimidin-4-yl]piperidine-1-carboxylate]	229 nM
Cc1ncsc1-c1nc(C2CCOCC2)c(C#N)c(=O)[nH]1 [Compound 18, 2-(4-methylthiazol-5-yl)-6-oxo-4-tetrahydropyran-4-yl-1H-pyrimidine-5-carbonitrile]	60.3 nM

Second part, the molecule after the results:

IC50	SMILES
158 nM	Cc1ncsc1-c1nc(N2CCCNC(=O)C2)c(Cl)c(=O)[nH]1 [Compound 34, 4-[5-chloro-2-(4-methylthiazol-5-yl)-6-oxo-1H-pyrimidin-4-yl]-1,4-diazepan-2-one]
3.98 nM	Cc1cc(C(=O)N2CCC(c3nc(-c4scnc4C)[nH]c(=O)c3Cl)CC2)n(C)n1 [Compound 24, 5-chloro-4-[1-(2,5-dimethylpyrazole-3-carbonyl)-4-piperidyl]-2-(4-methylthiazol-5-yl)-1H-pyrimidin-6-one]
56.2 nM	Cc1ncsc1-c1nc(C2CCN(CC(C)C)CC2)c(Cl)c(=O)[nH]1 [Compound 27, 5-chloro-4-(1-isobutyl-4-piperidyl)-2-(4-methylthiazol-5-yl)-1H-pyrimidin-6-one]
4.47 nM	Cc1ncsc1C(=O)N1CCC(c2nc(-c3scnc3C)[nH]c(=O)c2Cl)CC1 [Compound 20, 5-chloro-4-[1-(4-methylthiazole-5-carbonyl)-4-piperidyl]-2-(4-methylthiazol-5-yl)-1H-pyrimidin-6-one]
3.98 nM	Cc1ncsc1-c1nc(C2CCN(C(=O)c3cscn3)CC2)c(Cl)c(=O)[nH]1 [Compound 21, 5-chloro-2-(4-methylthiazol-5-yl)-4-[1-(thiazole-4-carbonyl)-4-piperidyl]-1H-pyrimidin-6-one]
1.66 nM	Cc1ncsc1-c1nc(C2CCN(C(=O)c3ccnnc3)CC2)c(Cl)c(=O)[nH]1 [Compound 26, 5-chloro-2-(4-methylthiazol-5-yl)-4-[1-(pyridazine-4-carbonyl)-4-piperidyl]-1H-pyrimidin-6-one]
4.37 nM	Cc1cc(C(=O)N2CCC(c3nc(-c4scnc4C)[nH]c(=O)c3Cl)CC2)[nH]n1 [Compound 22, 5-chloro-4-[1-(3-methyl-1H-pyrazole-5-carbonyl)-4-piperidyl]-2-(4-methylthiazol-5-yl)-1H-pyrimidin-6-one]
